Results from patent publication US12479847B2 (DANA-FARBER CANCER INSTITUTE, INC., priority 2019, dated 2025).
Like-named read-outs stand apart in the source and are kept apart here.

Experiments:
Test in all cases: KINOMEscan (ScanMAX) kinase profiling
Type in all cases: binding
panel of 468 kinases [1] = biological target: T1, panel of 468 kinases (Homo sapiens, UniProt O14920); conditions: IKK-beta; 1 μM; read-out: % control
T1 construct: purchased KINOMEscan (ScanMAX) service
T1 sequence (O14920 1-756): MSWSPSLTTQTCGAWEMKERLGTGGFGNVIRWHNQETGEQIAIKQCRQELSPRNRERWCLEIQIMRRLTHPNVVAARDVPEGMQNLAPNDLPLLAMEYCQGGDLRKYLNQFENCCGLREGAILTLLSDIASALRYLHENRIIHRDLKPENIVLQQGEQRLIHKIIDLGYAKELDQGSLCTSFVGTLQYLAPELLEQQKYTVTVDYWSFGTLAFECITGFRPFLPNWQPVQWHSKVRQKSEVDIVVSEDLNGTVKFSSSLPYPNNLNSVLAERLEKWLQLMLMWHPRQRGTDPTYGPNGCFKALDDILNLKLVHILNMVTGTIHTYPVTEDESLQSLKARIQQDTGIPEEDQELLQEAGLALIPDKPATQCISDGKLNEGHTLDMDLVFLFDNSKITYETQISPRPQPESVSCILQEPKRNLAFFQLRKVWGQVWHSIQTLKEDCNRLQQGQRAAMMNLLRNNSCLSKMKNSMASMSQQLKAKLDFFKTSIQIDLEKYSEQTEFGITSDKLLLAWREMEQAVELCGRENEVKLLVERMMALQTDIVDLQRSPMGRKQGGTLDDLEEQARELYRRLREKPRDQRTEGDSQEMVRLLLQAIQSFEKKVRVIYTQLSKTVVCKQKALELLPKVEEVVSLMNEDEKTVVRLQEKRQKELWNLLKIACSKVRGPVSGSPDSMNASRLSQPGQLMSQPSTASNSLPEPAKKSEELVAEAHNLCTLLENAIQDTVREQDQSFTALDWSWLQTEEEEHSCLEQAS

panel of 468 kinases [2] = biological target: T2, panel of 468 kinases (Homo sapiens, UniProt Q86Z02); conditions: HIPK1; 1 μM; read-out: % control
T2 construct: purchased KINOMEscan (ScanMAX) service
T2 sequence (Q86Z02 whole entry): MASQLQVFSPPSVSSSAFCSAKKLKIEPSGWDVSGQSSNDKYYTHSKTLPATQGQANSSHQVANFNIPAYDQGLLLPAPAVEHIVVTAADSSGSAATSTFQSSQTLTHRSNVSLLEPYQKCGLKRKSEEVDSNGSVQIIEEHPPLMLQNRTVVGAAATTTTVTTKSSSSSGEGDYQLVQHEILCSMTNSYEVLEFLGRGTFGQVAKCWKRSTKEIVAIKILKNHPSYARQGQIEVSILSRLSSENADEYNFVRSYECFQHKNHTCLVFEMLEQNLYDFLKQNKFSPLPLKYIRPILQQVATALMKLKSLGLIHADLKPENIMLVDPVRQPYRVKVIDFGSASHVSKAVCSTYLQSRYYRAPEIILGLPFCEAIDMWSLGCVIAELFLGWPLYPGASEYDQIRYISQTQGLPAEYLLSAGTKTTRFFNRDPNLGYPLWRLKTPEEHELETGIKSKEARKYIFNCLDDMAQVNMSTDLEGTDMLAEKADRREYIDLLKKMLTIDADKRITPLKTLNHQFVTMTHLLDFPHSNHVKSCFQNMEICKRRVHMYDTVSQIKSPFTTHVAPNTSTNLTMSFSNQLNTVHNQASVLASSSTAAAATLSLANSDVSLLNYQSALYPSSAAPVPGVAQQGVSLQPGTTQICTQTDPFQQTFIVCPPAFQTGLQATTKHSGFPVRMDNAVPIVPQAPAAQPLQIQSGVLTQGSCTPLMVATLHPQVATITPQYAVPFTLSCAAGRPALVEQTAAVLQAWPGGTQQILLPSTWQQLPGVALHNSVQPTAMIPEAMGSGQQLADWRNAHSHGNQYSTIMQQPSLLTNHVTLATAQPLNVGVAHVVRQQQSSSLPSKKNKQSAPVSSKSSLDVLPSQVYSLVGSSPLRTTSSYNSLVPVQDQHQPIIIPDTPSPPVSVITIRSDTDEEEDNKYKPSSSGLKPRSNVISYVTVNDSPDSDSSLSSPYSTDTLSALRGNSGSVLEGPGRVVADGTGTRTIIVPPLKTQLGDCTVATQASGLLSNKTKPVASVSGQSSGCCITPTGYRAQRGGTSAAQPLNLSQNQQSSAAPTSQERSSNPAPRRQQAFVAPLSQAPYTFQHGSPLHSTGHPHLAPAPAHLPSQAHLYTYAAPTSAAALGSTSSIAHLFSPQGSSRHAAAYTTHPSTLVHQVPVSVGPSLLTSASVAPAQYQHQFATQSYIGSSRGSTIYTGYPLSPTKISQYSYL

panel of 468 kinases [3] = biological target: T3, panel of 468 kinases (Homo sapiens, UniProt Q02779); conditions: MLK2; 1 μM; read-out: % control
T3 construct: purchased KINOMEscan (ScanMAX) service
T3 sequence (Q02779 whole entry): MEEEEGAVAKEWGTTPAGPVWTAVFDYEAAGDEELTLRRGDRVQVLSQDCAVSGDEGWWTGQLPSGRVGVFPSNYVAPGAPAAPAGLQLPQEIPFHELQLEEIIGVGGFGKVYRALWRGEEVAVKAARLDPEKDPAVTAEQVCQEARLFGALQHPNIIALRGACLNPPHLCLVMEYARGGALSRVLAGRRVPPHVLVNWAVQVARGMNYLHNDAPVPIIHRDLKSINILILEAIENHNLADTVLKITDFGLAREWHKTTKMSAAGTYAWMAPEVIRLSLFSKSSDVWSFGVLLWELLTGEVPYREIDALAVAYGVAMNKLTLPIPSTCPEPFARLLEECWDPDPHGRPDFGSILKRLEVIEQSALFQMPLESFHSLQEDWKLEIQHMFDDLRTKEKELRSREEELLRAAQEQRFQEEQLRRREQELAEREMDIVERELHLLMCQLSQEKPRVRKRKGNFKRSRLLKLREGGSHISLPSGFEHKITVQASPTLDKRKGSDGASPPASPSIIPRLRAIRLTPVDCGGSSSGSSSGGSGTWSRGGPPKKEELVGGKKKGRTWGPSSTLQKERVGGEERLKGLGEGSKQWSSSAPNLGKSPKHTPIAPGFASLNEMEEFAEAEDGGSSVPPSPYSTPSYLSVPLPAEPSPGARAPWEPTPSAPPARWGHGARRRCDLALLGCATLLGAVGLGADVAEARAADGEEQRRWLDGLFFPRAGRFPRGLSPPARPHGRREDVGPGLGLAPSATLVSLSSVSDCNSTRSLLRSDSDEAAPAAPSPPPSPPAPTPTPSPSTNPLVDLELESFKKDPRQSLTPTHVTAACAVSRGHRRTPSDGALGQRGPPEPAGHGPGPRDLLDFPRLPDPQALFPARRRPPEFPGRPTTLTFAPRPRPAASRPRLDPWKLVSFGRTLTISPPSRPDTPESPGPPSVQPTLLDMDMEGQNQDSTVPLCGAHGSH

panel of 468 kinases [4] = biological target: T4, panel of 468 kinases (Homo sapiens, UniProt O43353); conditions: RIPK2; 1 μM; read-out: % control
T4 construct: purchased KINOMEscan (ScanMAX) service
T4 sequence (O43353 whole entry): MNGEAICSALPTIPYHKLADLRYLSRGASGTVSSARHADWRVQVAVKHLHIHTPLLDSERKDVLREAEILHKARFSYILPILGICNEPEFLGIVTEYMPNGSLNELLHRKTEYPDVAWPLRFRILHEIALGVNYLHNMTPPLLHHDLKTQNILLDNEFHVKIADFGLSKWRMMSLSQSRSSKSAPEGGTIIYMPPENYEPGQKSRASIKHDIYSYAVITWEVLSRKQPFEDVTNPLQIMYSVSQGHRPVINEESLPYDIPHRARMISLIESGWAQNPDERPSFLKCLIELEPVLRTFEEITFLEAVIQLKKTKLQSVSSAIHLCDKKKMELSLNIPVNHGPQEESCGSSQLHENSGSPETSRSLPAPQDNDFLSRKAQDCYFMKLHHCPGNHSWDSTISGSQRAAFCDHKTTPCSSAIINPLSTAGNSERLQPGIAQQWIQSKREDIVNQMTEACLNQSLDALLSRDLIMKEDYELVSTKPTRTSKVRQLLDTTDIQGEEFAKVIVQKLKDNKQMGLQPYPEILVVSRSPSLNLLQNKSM

panel of 468 kinases [5] = biological target: T5, panel of 468 kinases (Homo sapiens, UniProt P00519, Q252H); conditions: 1 μM, read-out: % control
T5 construct: purchased KINOMEscan (ScanMAX) service

panel of 468 kinases [6] = biological target: T6, panel of 468 kinases (Homo sapiens, UniProt Q5S007); conditions: LRRK2; 1 μM; read-out: % control
T6 construct: purchased KINOMEscan (ScanMAX) service

panel of 468 kinases [7] = biological target: T7, panel of 468 kinases (Homo sapiens, UniProt Q9HBH9); conditions: MKNK2; 1 μM; read-out: % control
T7 construct: purchased KINOMEscan (ScanMAX) service
T7 sequence (Q9HBH9 whole entry): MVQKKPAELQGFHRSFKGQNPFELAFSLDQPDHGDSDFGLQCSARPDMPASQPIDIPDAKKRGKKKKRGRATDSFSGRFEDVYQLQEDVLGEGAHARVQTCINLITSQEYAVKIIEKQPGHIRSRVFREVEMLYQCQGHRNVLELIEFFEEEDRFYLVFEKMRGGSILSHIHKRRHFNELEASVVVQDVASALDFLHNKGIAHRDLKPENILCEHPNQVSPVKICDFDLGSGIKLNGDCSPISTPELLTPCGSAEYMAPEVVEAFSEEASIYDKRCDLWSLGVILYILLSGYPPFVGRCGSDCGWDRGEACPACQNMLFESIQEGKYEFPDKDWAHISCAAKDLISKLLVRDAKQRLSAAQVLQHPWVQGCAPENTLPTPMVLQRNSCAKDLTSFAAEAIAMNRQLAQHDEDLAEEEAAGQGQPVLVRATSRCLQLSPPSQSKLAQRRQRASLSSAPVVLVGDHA

panel of 468 kinases [8] = biological target: T8, panel of 468 kinases (Homo sapiens, UniProt Q13237); conditions: PRKG2; 1 μM; read-out: % control
T8 construct: purchased KINOMEscan (ScanMAX) service
T8 sequence (Q13237 1-762): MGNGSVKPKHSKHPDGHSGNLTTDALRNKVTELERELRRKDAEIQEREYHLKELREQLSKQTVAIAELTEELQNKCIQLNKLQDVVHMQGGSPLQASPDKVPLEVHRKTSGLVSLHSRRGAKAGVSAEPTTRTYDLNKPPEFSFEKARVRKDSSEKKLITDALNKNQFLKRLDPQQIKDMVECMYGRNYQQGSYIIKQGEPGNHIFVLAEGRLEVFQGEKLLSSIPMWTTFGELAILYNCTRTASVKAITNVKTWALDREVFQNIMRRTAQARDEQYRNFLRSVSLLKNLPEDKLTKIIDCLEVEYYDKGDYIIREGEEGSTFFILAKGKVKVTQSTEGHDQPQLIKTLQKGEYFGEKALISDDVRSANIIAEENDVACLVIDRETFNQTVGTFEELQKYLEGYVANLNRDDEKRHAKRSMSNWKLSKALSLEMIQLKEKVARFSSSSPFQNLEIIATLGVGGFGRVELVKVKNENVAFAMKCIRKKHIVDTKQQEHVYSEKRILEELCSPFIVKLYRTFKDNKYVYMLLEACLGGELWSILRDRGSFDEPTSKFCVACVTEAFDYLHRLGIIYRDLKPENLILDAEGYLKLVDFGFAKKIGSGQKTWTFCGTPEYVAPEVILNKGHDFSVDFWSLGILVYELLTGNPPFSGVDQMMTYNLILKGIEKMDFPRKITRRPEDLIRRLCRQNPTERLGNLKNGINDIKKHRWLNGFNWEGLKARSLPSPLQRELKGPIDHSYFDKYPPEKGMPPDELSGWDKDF

Row | Compound | remaining binding at 1 µM (panel of 468 kinases [1]) [%] | remaining binding at 1 µM (panel of 468 kinases [2]) [%] | remaining binding at 1 µM (panel of 468 kinases [3]) [%] | remaining binding at 1 µM (panel of 468 kinases [4]) [%] | remaining binding at 1 µM (panel of 468 kinases [5]; ABL1(Q252H)-nonphosphorylated) [%] | remaining binding at 1 µM (panel of 468 kinases [5]; ABL1(Q252H)-phosphorylated) [%] | remaining binding at 1 µM (panel of 468 kinases [6]) [%] | remaining binding at 1 µM (panel of 468 kinases [7]) [%] | remaining binding at 1 µM (panel of 468 kinases [8]) [%]
1 | CNc1nc(Nc2ccc(C(=O)N3CCC(N4CCOCC4)CC3)c3c2OCO3)nc2[nH]cc(Cl)c12 [Compound 75, (7-((5-chloro-4-(methylamino)-7H-pyrrolo[2,3-d]pyrimidin-2-yl)amino)benzo[d][1,3]dioxol-4-yl)(4-morpholinopiperidin-1-yl)methanone] | 96 | 23 | 93 | 100 | 100 | 57 | 1.4 | 10 | 100
2 | CNc1nc(Nc2ccc(S(=O)(=O)N3CCC(N4CCOCC4)CC3)cc2OC)nc2[nH]cc(Cl)c12 [Compound 12, 5-chloro-N2-(2-methoxy-4-((4-morpholinopiperidin-1-yl)sulfonyl)phenyl)-N4-methyl-7H-pyrrolo[2,3-d]pyrimidine-2,4-diamine] | 100 | 48 | 99 | 100 | 100 | 79 | 0.8 | 57 | 100
3 | CNc1nc(Nc2ccc(P3(=O)CCN(C4CCOCC4)CC3)cc2OC)nc2[nH]cc(Cl)c12 [Compound 77, 4-(4-((5-chloro-4-(methylamino)-7H-pyrrolo[2,3-d]pyrimidin-2-yl)amino)-3-methoxyphenyl)-1-(tetrahydro-2H-pyran-4-yl)-1,4-azaphosphinane 4-oxide] | 95 | 32 | 99 | 100 | 100 | 62 | 0.4 | 31 | 100
